Values quoted from earlier work in US9750672B1, “Aloe derived mineral supplement” (AL Global Inc., priority 2013, dated 2017).

Experiments:
[1] = magnesium load 25 mmol; for increment in urinary magnesium during 4 hours post-load: p<0.05; for increment in urinary magnesium during second 2 hours post-load: p less than 0.05

Molecule	solubility in simulated peak acid secretion (24.2 mEq hydrochloric acid/300 ml)	solubility in water (water)	increment in urinary magnesium during 4 hours post-load [1]	increment in urinary magnesium during second 2 hours post-load [1]
[O]=[Mg] [Magnesium oxide]	43%	virtually insoluble	0.006 mg/mg creatinine	0.008 mg/mg creatinine
Magnesium citrate			0.22 mg/mg creatinine	0.035 mg/mg creatinine
